Data from patent publication US8883782B2, “Spiro-tetracyclic ring compounds as beta-secretase modulators and methods of use” (Amgen Inc., priority 2010, dated 2014).
Where two headings read alike, the source gives them in different places.

How the values were obtained:
[1] = molecular target: Beta Secretase enzyme (BACE) (Homo sapiens, UniProt P56817); test: In vitro enzymatic BACE FRET (fluorescence resonance energy transfer) assay; assay type: biochemical; details: average IC50, enzyme assay; read-out: BACE 1 FRET assay
Sequence of Beta Secretase enzyme (BACE) (P56817 46-501, species assumed): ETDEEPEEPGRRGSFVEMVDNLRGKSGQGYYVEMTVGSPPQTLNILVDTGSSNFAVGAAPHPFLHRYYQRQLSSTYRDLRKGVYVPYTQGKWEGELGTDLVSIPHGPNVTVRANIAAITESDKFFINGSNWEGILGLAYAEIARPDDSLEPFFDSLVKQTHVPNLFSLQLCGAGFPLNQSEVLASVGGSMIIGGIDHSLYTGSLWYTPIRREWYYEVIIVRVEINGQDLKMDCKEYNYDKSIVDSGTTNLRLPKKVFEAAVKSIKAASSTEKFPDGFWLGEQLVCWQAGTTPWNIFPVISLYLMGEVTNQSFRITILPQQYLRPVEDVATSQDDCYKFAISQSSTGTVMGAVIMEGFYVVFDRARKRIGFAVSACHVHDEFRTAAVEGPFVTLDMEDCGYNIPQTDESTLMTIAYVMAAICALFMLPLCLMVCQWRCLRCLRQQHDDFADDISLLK
How it was run: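 Acetate buffer (0.05 M, pH 4.2), 10% DMSO final, 100 uM nonionic detergent genapol. Substrate addition (50 nM FRET peptide) initiates; one-hour incubation; Tris raises pH to neutrality before fluorescence measurement.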

[2] = test system: Aβ40 in conditioned medium of cells stably expressing Amyloid Precursor Protein (APP); test: In vitro BACE cell-based assay (Aβ40 in conditioned medium, sandwich ELISA); details: Homo sapiens, read-out: HEK cell assay
How it was run: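 Step two: 10-point compound titration added, starting 100 μM or 10 μM, 0.1% DMSO. Step three: medium Aβ40 measured by ELISA, capture 3 h and detection 2 h at 4° C, TRF read.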

[3] = HEK293, average IC50, HEK cells

SMILES	IC50 [1] [nM]	IC50 [2, 3] [nM]	IC50 ([2]; HEK293, average IC50) [nM]
NC1=N[C@@]2(CS1)c1cc(-c3cccnc3)ccc1Oc1ncc(C3=CCCOC3)cc12 [Example 959, (5S)-3-(5,6-dihydro-2H-pyran-3-yl)-7-(3-pyridinyl)spiro[chromeno[2,3-b]pyridine-5,4′-[1,3]thiazol]-2′-amine]	1	13	
Cn1cc(-c2cnc3c(c2)[C@]2(CSC(N)=N2)c2cc(-c4ccc(F)nc4)ccc2O3)cn1 [Example 962, (5S)-7-(6-fluoro-3-pyridinyl)-3-(1-methyl-1H-pyrazol-4-yl)spiro[chromeno[2,3-b]pyridine-5,4′-[1,3]thiazol]-2′-amine]	5.4	65	
NC1=N[C@@]2(CS1)c1cc(-c3ccc(F)nc3)ccc1Oc1ncc(Br)cc12 [Example 963, (5S)-3-bromo-7-(6-fluoro-3-pyridinyl)spiro[chromeno[2,3-b]pyridine-5,4′-[1,3]thiazol]-2′-amine]	43.3	833	
CC1(C#Cc2cnc3c(c2)[C@]2(CSC(N)=N2)c2cc(-c4cncc(F)c4)ccc2O3)COC1 [Example 964, (5S)-7-(5-fluoro-3-pyridinyl)-3-((3-methyl-3-oxetanyl)ethynyl)spiro[chromeno[2,3-b]pyridine-5,4′-[1,3]thiazol]-2′-amine]	0.9	15	
NC1=N[C@@]2(CS1)c1cc(-c3ccc(F)nc3)ccc1Oc1ncc(C3=CCOCC3)cc12 [Example 966, (5S)-3-(3,6-dihydro-2H-pyran-4-yl)-7-(6-fluoro-3-pyridinyl)spiro[chromeno[2,3-b]pyridine-5,4′-[1,3]thiazol]-2′-amine]	2.2	32	
NC1=N[C@@]2(CO1)c1cc(OCc3ccccc3)ccc1Oc1ncc(C3=CCOCC3)cc12 [Example 967, (5S)-7-(benzyloxy)-3-(3,6-dihydro-2H-pyran-4-yl)spiro[chromeno[2,3-b]pyridine-5,4′-[1,3]oxazol]-2′-amine]	44.4	463	
NC1=N[C@@]2(CO1)c1cc(OCc3ccncc3)ccc1Oc1ncc(C3=CCOCC3)cc12 [Example 970, (5S)-3-(3,6-dihydro-2H-pyran-4-yl)-7-(4-pyridinylmethoxy)spiro[chromeno[2,3-b]pyridine-5,4′-[1,3]oxazol]-2′-amine]	112	455	
NC1=N[C@@]2(CO1)c1cc(OCc3cccnc3)ccc1Oc1ncc(C3=CCOCC3)cc12 [Example 971, (5S)-3-(3,6-dihydro-2H-pyran-4-yl)-7-(3-pyridinylmethoxy)spiro[chromeno[2,3-b]pyridine-5,4′-[1,3]oxazol]-2′-amine]	33.6		154
NC1=N[C@@]2(CO1)c1cc(OCc3ccccn3)ccc1Oc1ncc(C3=CCOCC3)cc12 [Example 972, (5S)-3-(3,6-dihydro-2H-pyran-4-yl)-7-(2-pyridinylmethoxy)spiro[chromeno[2,3-b]pyridine-5,4′-[1,3]oxazol]-2′-amine]	89.6		629
CC1(C#Cc2cnc3c(c2)[C@]2(COC(N)=N2)c2cc(OCc4ccccc4)ccc2O3)COC1 [Example 973, (5S)-7-(benzyloxy)-3-((3-methyl-3-oxetanyl)ethynyl)spiro[chromeno[2,3-b]pyridine-5,4′-[1,3]oxazol]-2′-amine]	187		1370
NC1=N[C@@]2(CO1)c1cc(OCc3cccnc3)ccc1Oc1ncc(-c3ccnc(F)c3)cc12 [Example 974, (5S)-3-(2-fluoro-4-pyridinyl)-7-(3-pyridinylmethoxy)spiro[chromeno[2,3-b]pyridine-5,4′-[1,3]oxazol]-2′-amine]	110		2720
NC1=N[C@@]2(CO1)c1cc(OCc3cccnc3)ccc1Oc1ncc(-c3cccnc3)cc12 [Example 975, (5S)-3-(3-pyridinyl)-7-(3-pyridinylmethoxy)spiro[chromeno[2,3-b]pyridine-5,4′-[1,3]oxazol]-2′-amine]	116		1080
NC1=N[C@@]2(CO1)c1cc(OCc3cccnc3)ccc1Oc1ncc(Br)cc12 [Example 976, (5S)-3-bromo-7-(3-pyridinylmethoxy)spiro[chromeno[2,3-b]pyridine-5,4′-[1,3]oxazol]-2′-amine]	3810		≥ 10000
Cc1ccc(-c2cnc3c(c2)[C@]2(COC(N)=N2)c2cc(OCc4cccnc4)ccc2O3)cn1 [Example 977, (5S)-3-(6-methyl-3-pyridinyl)-7-(3-pyridinylmethoxy)spiro[chromeno[2,3-b]pyridine-5,4′-[1,3]oxazol]-2′-amine]	51.9		430
NC1=N[C@@]2(CO1)c1cc(OCc3ccccc3Br)ccc1Oc1ncc(-c3cccnc3)cc12 [Example 978, (5S)-7-((2-bromobenzyl)oxy)-3-(3-pyridinyl)spiro[chromeno[2,3-b]pyridine-5,4′-[1,3]oxazol]-2′-amine]	50.7		334
NC1=N[C@@]2(CO1)c1cc(OCc3ccc(Br)cc3)ccc1Oc1ncc(-c3cccnc3)cc12 [Example 980, (5S)-7-((4-bromobenzyl)oxy)-3-(3-pyridinyl)spiro[chromeno[2,3-b]pyridine-5,4′-[1,3]oxazol]-2′-amine]	45.6		336
COc1cccc(COc2ccc3c(c2)[C@@]2(COC(N)=N2)c2cc(-c4cccnc4)cnc2O3)c1 [Example 983, (5S)-7-((3-methoxybenzyl)oxy)-3-(3-pyridinyl)spiro[chromeno[2,3-b]pyridine-5,4′-[1,3]oxazol]-2′-amine]	24.6		314
NC1=N[C@@]2(CO1)c1cc(OCc3cccc(C(F)(F)F)c3)ccc1Oc1ncc(-c3cccnc3)cc12 [Example 985, (5S)-3-(3-pyridinyl)-7-((3-(trifluoromethyl)benzyl)oxy)spiro[chromeno[2,3-b]pyridine-5,4′-[1,3]oxazol]-2′-amine]	68.3		288
NC1=N[C@]2(CO1)c1cc(-c3cccnc3F)ccc1Oc1cc(OC(F)(F)F)c(Br)cc12 [Example 988, (4R)-2′-bromo-7′-(2-fluoro-3-pyridinyl)-3′-(trifluoromethoxy)spiro[1,3-oxazole-4,9′-xanthen]-2-amine]	40000		≥ 10000

The remaining compounds from weak to strong by IC50 [1], led by results:

IC50 [1] [nM]	IC50 [2, 3] [nM]	IC50 ([2]; HEK293, average IC50) [nM]	SMILES
4630		≥ 10000	CC1(C#Cc2cc3c(cc2OC(F)(F)F)Oc2ccc(-c4cccnc4F)cc2[C@]32COC(N)=N2)COC1 [Example 987, (4R)-7′-(2-fluoro-3-pyridinyl)-2′-((3-methyl-3-oxetanyl)ethynyl)-3′-(trifluoromethoxy)spiro[1,3-oxazole-4,9′-xanthen]-2-amine]
1260	≥ 10000		C1=C(c2cnc3c(c2)[C@]2(COC(NCc4ccccc4)=N2)c2cc(OCc4ccccc4)ccc2O3)CCOC1 [Example 968, (5S)-N-benzyl-7-(benzyloxy)-3-(3,6-dihydro-2H-pyran-4-yl)spiro[chromeno[2,3-b]pyridine-5,4′-[1,3]oxazol]-2′-amine]
835	≥ 10000		NC1=N[C@@]2(CO1)c1cc(O)ccc1Oc1ncc(C3=CCOCC3)cc12 [Example 969, (5S)-2′-amino-3-(3,6-dihydro-2H-pyran-4-yl)spiro[chromeno[2,3-b]pyridine-5,4′-[1,3]oxazol]-7-ol]
193		2820	CC1(C#Cc2cc3c(cc2OC(F)(F)F)Oc2ccc(-c4cccnc4F)cc2[C@@]32COC(N)=N2)COC1 [Example 986, (4S)-7′-(2-fluoro-3-pyridinyl)-2′-((3-methyl-3-oxetanyl)ethynyl)-3′-(trifluoromethoxy)spiro[1,3-oxazole-4,9′-xanthen]-2-amine]
66.8		644	NC1=N[C@@]2(CO1)c1cc(OCc3cccc(F)c3)ccc1Oc1ncc(-c3cccnc3)cc12 [Example 982, (5S)-7-((3-fluorobenzyl)oxy)-3-(3-pyridinyl)spiro[chromeno[2,3-b]pyridine-5,4′-[1,3]oxazol]-2′-amine]
30.8		125	N#Cc1cccc(COc2ccc3c(c2)[C@@]2(COC(N)=N2)c2cc(-c4cccnc4)cnc2O3)c1 [Example 984, 3-((((5S)-2′-amino-3-(3-pyridinyl)spiro[chromeno[2,3-b]pyridine-5,4′-[1,3]oxazol]-7-yl)oxy)methyl)benzonitrile]
23.3	785		NC1=N[C@@]2(CS1)c1cc(-c3cncc(F)c3)ccc1Oc1ncc(Br)cc12 [Example 965, (5S)-3-bromo-7-(5-fluoro-3-pyridinyl)spiro[chromeno[2,3-b]pyridine-5,4′-[1,3]thiazol]-2′-amine]
22.2		262	NC1=N[C@@]2(CO1)c1cc(OCCCc3ccccc3)ccc1Oc1ncc(-c3cccnc3)cc12 [Example 981, (5S)-7-(3-phenylpropoxy)-3-(3-pyridinyl)spiro[chromeno[2,3-b]pyridine-5,4′-[1,3]oxazol]-2′-amine]
3.7	36		Cn1cc(-c2cnc3c(c2)[C@]2(CSC(N)=N2)c2cc(-c4cccnc4)ccc2O3)cn1 [Example 960, (5S)-3-(1-methyl-1H-pyrazol-4-yl)-7-(3-pyridinyl)spiro[chromeno[2,3-b]pyridine-5,4′-[1,3]thiazol]-2′-amine]
1	18		CC1(C#Cc2cnc3c(c2)[C@]2(CSC(N)=N2)c2cc(-c4ccc(F)nc4)ccc2O3)COC1 [Example 961, (5S)-7-(6-fluoro-3-pyridinyl)-3-((3-methyl-3-oxetanyl)ethynyl)spiro[chromeno[2,3-b]pyridine-5,4′-[1,3]thiazol]-2′-amine]
0.6		23	NC1=N[C@@]2(CO1)c1cc(OCc3cccc(Br)c3)ccc1Oc1ncc(-c3cccnc3)cc12 [Example 979, (5S)-7-((3-bromobenzyl)oxy)-3-(3-pyridinyl)spiro[chromeno[2,3-b]pyridine-5,4′-[1,3]oxazol]-2′-amine]
